The values that follow come from ChEMBL document CHEMBL5137033, “Development of sulfonamide-based NLRP3 inhibitors: Further modifications and optimization through structure-activity relationship studies” (Eur J Med Chem, 2022).

Data set [1] can be described thus: Drug uptake in iv dosed C57BL/6 mouse brain thalamus measured after 60 mins by PET/CT imaging analysis. The data set is classed as ADME, organism-based. The conditions noted are these: in vivo, 1 h.
Data set [2] in a line: Drug uptake in iv dosed C57BL/6 mouse liver measured after 60 mins. The conditions noted are these: in vivo, 1 h.
Data set [3] in a line: Drug uptake in iv dosed C57BL/6 mouse lung measured after 1 min by PET/CT imaging analysis. Type of data set: ADME, organism-based. The conditions noted are these: in vivo.
The nature of data set [4]: Drug uptake in iv dosed C57BL/6 mouse blood measured after 60 mins. The conditions noted are these: in vivo, 1 h.
A short description of data set [5]: Drug uptake in iv dosed C57BL/6 mouse hippocampus measured after 60 mins by PET/CT imaging analysis. Type of data set: ADME, organism-based. The conditions noted are these: in vivo, 1 h.
The nature of data set [6]: Drug uptake in iv dosed C57BL/6 mouse liver measured after 3 min by PET/CT imaging analysis. Type of data set: ADME, organism-based. The conditions noted are these: in vivo, 0.05 h.
The nature of data set [7]: Drug uptake in iv dosed C57BL/6 mouse brain measured after 60 mins by PET/CT imaging analysis. Type of data set: ADME, organism-based. The conditions noted are these: in vivo, 1 h.
Data set [8] is described as follows: Drug uptake in iv dosed C57BL/6 mouse lung measured after 60 mins. The conditions noted are these: in vivo, 1 h.
A short description of data set [9]: Uptake in iv dosed C57BL/6 mouse kidney measured after 60 mins. The conditions noted are these: in vivo, 1 h.
The nature of data set [10]: Drug uptake in iv dosed C57BL/6 mouse Midbrain measured after 60 mins by PET/CT imaging analysis. Type of data set: ADME, organism-based. The conditions noted are these: in vivo, 1 h.
The nature of data set [11]: Drug uptake in iv dosed C57BL/6 mouse brain cortex measured after 60 mins by PET/CT imaging analysis. The data set is classed as ADME, organism-based. The conditions noted are these: in vivo, 1 h.
Data set [12] is described as follows: Drug uptake in iv dosed C57BL/6 mouse brain cerebellum measured after 60 mins by PET/CT imaging analysis. The conditions noted are these: in vivo, 1 h. The data set is classed as ADME, organism-based.
Data set [13] is described as follows: Drug uptake in iv dosed C57BL/6 mouse Brainstem measured after 60 mins by PET/CT imaging analysis. The data set is classed as ADME, organism-based. The conditions noted are these: in vivo, 1 h.
Data set [14] in a line: Drug uptake in iv dosed C57BL/6 mouse kidney measured after 3 min by PET/CT imaging analysis. The data set is classed as ADME, organism-based. The conditions noted are these: in vivo, 0.05 h.
Data set [15] is described as follows: Drug uptake in iv dosed C57BL/6 mouse brain striatum measured after 60 mins by PET/CT imaging analysis. Type of data set: ADME, organism-based. The conditions noted are these: in vivo, 1 h.
A short description of data set [16]: Drug uptake in iv dosed C57BL/6 mouse blood measured after 1 min by PET/CT imaging analysis. The conditions noted are these: in vivo. Type of data set: ADME, organism-based.

As for `C#CCNS(=O)(=O)c1ccc(CCN(Cc2cc(Cl)ccc2OCCC)C(=O)c2ccc([18F])cc2)cc1`, the Drug uptake entry in data set [1] is given as “Active”; in [2], 12 %ID/cc; in [3] it was 22.6 %ID/cc; in [4], 4.2 %ID/cc; in data set [5], “Active”; in data set [6], 18.1 %ID/cc. The Drug uptake in [7] is 1.8 %ID/cc; in [8], 4.7 %ID/cc; in [9], 12.3 %ID/cc; in data set [10], “Active”; in data set [11], “Active”; in data set [12], “Active”. Moreover, the Drug uptake entry is on record as “Active” in data set [13], 20 %ID/cc in [14], “Active” in [15] and 30.1 %ID/cc in [16].
